Source: PMC6099693, “Design, Synthesis, and In Vitro Evaluation of Novel Histone H3 Peptide-Based LSD1 Inactivators Incorporating α,α-Disubstituted Amino Acids with γ-Turn-Inducing Structures” (Molecules : A Journal of Synthetic Chemistry and Natural …, 2018)
*1 amine or outer side, *2 acyl side, *3 side chain or, on linkers, in order; H or OH if unused. Where a SMILES comes first, the peptide text is derived from it. [ ]: non-standard residue; d: D form. Lys((1R,2S)-2-Ph-cPr) = N[C@@H](CCCCN[C@@H]1C[C@H]1c1ccccc1)C(=O)O; X1 = O=C(C1(N[*:1])C2CC3CC(C2)CC1C3)[*:2]; Ac6c = NC1(C(=O)O)CCCCC1; Aib = CC(C)(N)C(=O)O

Assays:
Type in all cases: biochemical
MAO-A = biological target: T1, MAO-A (Homo sapiens, UniProt P21397); experiment: MAO-Glo assay, MAO-A inhibitory activity; settings: for IC50: Promega V1401, MAO-A 18 units/mL, substrate 160 µM, room temperature, 60 min, chemiluminescence, means ± S.D. of at least three experiments
T1 construct: purchased Sigma-Aldrich
T1 sequence (P21397 1-527): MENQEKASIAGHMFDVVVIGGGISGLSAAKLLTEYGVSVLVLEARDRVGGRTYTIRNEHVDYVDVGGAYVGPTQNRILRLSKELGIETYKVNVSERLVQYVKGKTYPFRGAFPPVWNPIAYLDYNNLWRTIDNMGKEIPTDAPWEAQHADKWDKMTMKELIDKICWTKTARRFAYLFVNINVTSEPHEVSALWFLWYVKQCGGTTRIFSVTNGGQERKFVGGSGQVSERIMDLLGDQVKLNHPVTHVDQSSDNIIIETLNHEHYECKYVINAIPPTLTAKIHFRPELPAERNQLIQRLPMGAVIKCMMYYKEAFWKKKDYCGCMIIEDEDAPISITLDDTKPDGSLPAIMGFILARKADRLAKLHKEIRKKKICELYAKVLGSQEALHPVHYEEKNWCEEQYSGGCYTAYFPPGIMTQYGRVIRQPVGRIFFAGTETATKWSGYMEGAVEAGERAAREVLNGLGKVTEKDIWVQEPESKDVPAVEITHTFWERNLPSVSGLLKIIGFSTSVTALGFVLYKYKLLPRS
Protocol: (§1) We assayed for the LSD1 inhibitory activities of novel peptides 2a–c. The assay was performed with an LSD1 Fluorometric Drug Discovery Kit (Enzo Life Sciences, New York, NY, USA, BML-AK544-0001). […] Next, we examined the time-dependency of LSD1 inhibition by peptides 2a–c. […] We also assayed for the inhibitory activities of monoamine oxidases (MAOs), which are FAD-dependent oxidases associated with neurotransmitter metabolism, to investigate the selectivity toward LSD1. For this investigation, we used a MAO-Glo^TM Assay System (Promega, Madison, WI, USA, V1401).
(§2) Assays for MAO inhibitory activity were carried out according to the supplier’s protocol using a MAO-Glo^TM Assay System (Promega, V1401). […] Reactions were stopped after 60 min by adding reconstituted Luciferin Detection Reagent (50 µL/well). Then, 20 min after the addition of this reagent, the chemiluminescence of the wells was measured with a 2030 ARVO^TM X3 Multilabel Reader (PerkinElmer). For data processing, the same procedure as that for LSD1 inhibitory activity was used.

LSD1 = biological target: T2, LSD1 (Homo sapiens, UniProt O60341); experiment: LSD1 Fluorometric Drug Discovery Kit, LSD1 inhibitory activity; settings: for IC50: Enzo BML-AK544-0001 kit, 15 min pre-incubation with LSD1 (0.5 µg/well), room temperature, H3K4me2 peptide 20 µM, 30 min, fluorescence 540/590 nm, means ± S.D. of at least three experiments; for LSD1 inhibitory activity: comparison within Table 1
T2 construct: purchased Enzo Life Sciences BML-AK544-0001
Protocol: The assay was performed with an LSD1 Fluorometric Drug Discovery Kit (Enzo Life Sciences, New York, NY, USA, BML-AK544-0001). […] We also assayed for the inhibitory activities of monoamine oxidases (MAOs), which are FAD-dependent oxidases associated with neurotransmitter metabolism, to investigate the selectivity toward LSD1. For this investigation, we used a MAO-Glo^TM Assay System (Promega, Madison, WI, USA, V1401).
Inhibitors were pre-incubated with LSD1 (0.5 µg/well; room temperature; 15 min) before reactions were initiated by the addition of H3K4me2 peptide (2.3 µg/well, 20 µM) into all wells except the blank. After incubation (room temperature; 30 min), CeLLestial^TM Red and HRP in the assay buffer were added and the incubation was prolonged (room temperature; 5 min). […] IC50 values were determined by regression analysis of the concentration/inhibition data.

MAO-B = biological target: T3, MAO-B (Homo sapiens, UniProt P27338); experiment: MAO-Glo assay, MAO-B inhibitory activity; settings: Promega V1401; MAO-B 6 units/mL, substrate 16 µM; room temperature, 60 min; chemiluminescence; means ± S.D. of at least three experiments
T3 construct: purchased Sigma-Aldrich
T3 sequence (P27338 1-520): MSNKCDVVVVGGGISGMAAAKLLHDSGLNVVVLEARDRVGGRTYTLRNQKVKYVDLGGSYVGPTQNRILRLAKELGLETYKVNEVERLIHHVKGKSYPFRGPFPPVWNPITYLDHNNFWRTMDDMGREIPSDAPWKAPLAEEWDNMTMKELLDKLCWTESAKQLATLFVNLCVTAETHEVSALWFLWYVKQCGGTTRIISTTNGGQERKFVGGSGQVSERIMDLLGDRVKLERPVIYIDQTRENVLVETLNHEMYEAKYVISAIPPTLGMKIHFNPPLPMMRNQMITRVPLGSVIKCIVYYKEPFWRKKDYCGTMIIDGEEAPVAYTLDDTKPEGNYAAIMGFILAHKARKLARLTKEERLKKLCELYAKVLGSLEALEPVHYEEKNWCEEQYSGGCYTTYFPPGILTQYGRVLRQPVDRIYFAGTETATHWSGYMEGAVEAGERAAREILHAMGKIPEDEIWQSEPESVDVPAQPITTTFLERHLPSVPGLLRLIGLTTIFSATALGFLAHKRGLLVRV
Protocol: as §1, §2

SMILES | MAO-A inactivation (MAO-A; peptides at 10 µM, PCPA as positive control) | IC50 (LSD1) [µM] | IC50 (MAO-A) [µM] | IC50 (MAO-B) [µM] | LSD1 inhibitory activity (LSD1) | LSD1 selectivity (LSD1; LSD1 selectivity, MAO-A/MAO-B assayed for selectivity toward LSD1) [fold]
N[C@@H]1C[C@H]1c1ccccc1 (relative stereo) [PCPA, trans-2-phenylcyclopropylamine, reference compound] | inactivated both MAO-A and MAO-B |  |  |  |  | 
C[C@H](N)C(=O)N[C@@H](CCCNC(=N)N)C(=O)NC1(C(=O)N[C@@H](CCCCN[C@@H]2C[C@H]2c2ccccc2)C(=O)NC2(C(=O)N[C@H](C(=O)N[C@@H](C)C(=O)N[C@@H](CCCNC(=N)N)C(=O)N[C@@H](CCCCN)C(=O)N[C@@H](CO)C(=O)N[C@H](C(=O)O)[C@@H](C)O)[C@@H](C)O)C3CC4CC(C3)CC2C4)C2CC3CC(C2)CC1C3 (stereo partly drawn) [2c] (H-AR[X1][Lys((1R,2S)-2-Ph-cPr)][X1]TARKST-OH; C-terminus assumed) |  | 0.0724 ± 0.004 | > 10 | > 10 |  | 
C[C@H](N)C(=O)N[C@@H](CCCNC(=N)N)C(=O)N[C@H](C(=O)N[C@@H](CCCCN[C@@H]1C[C@H]1c1ccccc1)C(=O)N[C@@H](CCC(N)=O)C(=O)N[C@H](C(=O)N[C@@H](C)C(=O)N[C@@H](CCCNC(=N)N)C(=O)N[C@@H](CCCCN)C(=O)N[C@@H](CO)C(=O)N[C@H](C(=O)O)[C@@H](C)O)[C@@H](C)O)[C@@H](C)O [peptide 1, reference compound] |  | 0.126 ± 0.002 | > 10 | > 10 | inactivated LSD1 potently compared to PCPA | 
C[C@H](N)C(=O)N[C@@H](CCCNC(=N)N)C(=O)NC(C)(C)C(=O)N[C@@H](CCCCN[C@@H]1C[C@H]1c1ccccc1)C(=O)NC(C)(C)C(=O)N[C@H](C(=O)N[C@@H](C)C(=O)N[C@@H](CCCNC(=N)N)C(=O)N[C@@H](CCCCN)C(=O)N[C@@H](CO)C(=O)N[C@H](C(=O)O)[C@@H](C)O)[C@@H](C)O [peptide 2a] (H-AR[Aib][Lys((1R,2S)-2-Ph-cPr)][Aib]TARKST-OH; C-terminus assumed) |  | 0.0891 ± 0.0053 | > 10 | > 10 |  | 
C[C@H](N)C(=O)N[C@@H](CCCNC(=N)N)C(=O)NC1(C(=O)N[C@@H](CCCCN[C@@H]2C[C@H]2c2ccccc2)C(=O)NC2(C(=O)N[C@H](C(=O)N[C@@H](C)C(=O)N[C@@H](CCCNC(=N)N)C(=O)N[C@@H](CCCCN)C(=O)N[C@@H](CO)C(=O)N[C@H](C(=O)O)[C@@H](C)O)[C@@H](C)O)CCCCC2)CCCCC1 [peptide 2b] (H-AR[Ac6c][Lys((1R,2S)-2-Ph-cPr)][Ac6c]TARKST-OH; C-terminus assumed) |  | 0.0584 ± 0.0025 | > 10 | > 10 | the most potent LSD1 inactivator among the peptides tested in this study | > 170
